Assay results: patent US20130071936A1, “FRET-BASED ZINC(II) ION INDICATOR” (The Florida State University Research Foundation, Inc., priority 2011, published 2013)

Columns and labels:
[1] = Fluorescence titration with ZnCl2 in aqueous/organic mixed solvent (1:9 MOPS buffer pH 7.2/CH3CN); format: binding; details: λex 400 nm
Description: FIG. 9 is a graph depicting emission spectra for the titration of zinc(II) ion indicator (4) (2.5 μM) with ZnCl2 (0-22 μM) in water-CH3CN (1:9) mixture (MOPES buffer, 10 mM, pH=7.2, λex=400 nm).
The titration experiments using zinc(II) ion indicator (4) were also carried out in an aqueous/organic mixed solvent (1:9 MOPS buffer (pH 7.2)/CH3CN). […] (FIG. 9). Comparing to the observations in CH3CN, the fluorescence is rather dim. The loss of fluorescence can be explained by the hydrogen bonding interaction between the protic solvent and the carbonyl groups on NDI, which provides a non-radiative deactivation pathway. See F. Würthner, S. Ahmed, C. Thalacker and T. Debaerdemaeker, Chem. Eur. J., 2002, 8, 4742. […] By extension, the fluorescence of zinc(II) ion indicators (4) and (5) would not be affected by the fluctuations of pH within the physiological range.

[2] = Fluorescence response to various metal ions (metal ion selectivity); details: indicator 3.0 μM, 1:9 water/CH3CN pH 7.2, λex 400 nm
Description: FIG. 8 is a chart depicting fluorescence spectroscopic responses of zinc(II) ion indicator (4) (3.0 μM, λex 400 nm) to various metal ions in 1:9 water/CH3CN mixture at pH 7.2 (30 mM of MOPS buffer). Clear bars represent intensity in the presence of various metal ions (perchlorate salt). Metal ion concentrations of Na^+, K^+, Ca^2+, Mg^2+ were 1.0 mM and for other ions 30 μM. Hatch marked bars represent the fluorescence following subsequent addition of Zn(ClO4)2 (30 μM).
The fluorescence dependence of zinc(II) ion indicator (4) on the identity of metal ion was evaluated (FIG. 8). […] The observed metal ion selectivity can be understood based on the Irving-Williams series and HSAB theory.

[3] = Absorption and fluorescence titration of the indicator with ZnCl2 in CH3CN; format: binding
Description: FIG. 3 is a graph depicting fluorescence intensity increase (F/F0 at 630 nm) of zinc(II) ion indicator (4) (3.0 μM), with increasing [ZnCl2]. The solid line is the fitting curve of F/F0 vs. [Zn^2+] based on a 1:1 binding isotherm equation. See Zhu, L.; Zhong, Z.; Anslyn, E. V. J. Am. Chem. Soc. 2005, 127, 4260-4269.
FIGS. 4A and 4B are graphs depicting (4A) Absorption spectra for the titration of zinc(II) ion indicator (4) (3.0 μM) with ZnCl2 (0-18 μM) in CH3CN, and (4B) Fluorescence spectral change of zinc(II) ion indicator (4) (3.0 μM) with different concentrations of ZnCl2 (0-18 μM) in CH3CN (λex 400 nm).
FIG. 5 is a graph depicting fluorescence spectral change of zinc(II) ion indicator (4) (2.5 μM) with different concentrations of ZnCl2 (0-16 μM) in CH3CN (λex=600 nm).
The syntheses of the separate FRET donor and acceptor systems (1-3) and indicators for zinc(II) (4, 5) are described in the examples. Absorption spectrum of zinc(II) ion indicator compound (4) in CH3CN consists of two bands over 300 nm (FIG. 4A). The band centered at 346 nm corresponds to the absorption of the bipy-containing FRET donor moiety, which we term the D band. The band centered at 600 nm corresponds to the NDI moiety which is termed the A band. Upon addition of increasing amount of ZnCl2, as a result of zinc(II) coordination at the bipy moiety, the charge-transfer D band undergoes a bathochromic shift from 346 nm to 370 nm. The A band, meanwhile, experiences a slight hypochromic shift.
The fluorescence titration profile of zinc(II) ion indicator compound (4) with ZnCl2 upon excitation at 400 nm is shown in FIG. 4B. […] This signal may have arisen from the direct excitation of the NDI component. Upon addition of increasing amount of ZnCl2 from 0-18 μM, the emission at 630 nm intensifies, and reaches saturation with 12-fold enhancement in integrated intensity (See Table 1 for spectroscopic data). […] These observations are consistent with the involvement of a zinc(II)-modulated intramolecular excitation energy transfer process. Furthermore, the differed sensitivity to excitation wavelength of zinc(II) ion indicator (4) offers an opportunity to correlate [Zn^2+] and fluorescence change ratiometrically. […]
Reagents and solvents were purchased from various commercial sources and used without further purification unless otherwise stated. […] Silica and alumina gel was flame-dried under vacuum to remove absorbed moisture before use. ^1H NMR spectra were recorded at 300 MHz on a Varian Mercury spectrometer. ^13C NMR spectra were recorded at 125 MHz, on a Bruker Avance spectrometer. […] Spectrophotometric and fluorometric titrations were conducted on a Varian Cary 100 Bio UV-Visible Spectrophotometer and a Varian Cary Eclipse Fluorescence Spectrophotometer, respectively, with a 1-cm standard quartz cell. […]

## COCCCNc1cc2c3c(c(NCCOc4ccc(/C=C/c5ccc(-c6ccc(COCCOCCOC)cn6)nc5)cc4)cc4c3c1C(=O)N(CCCOC)C4=O)C(=O)N(CCCOC)C2=O [Compound (4)]
[1]
  fluorescence enhancement on increasing [Zn^2+]: 3 fold
[2]; 30 μM metal ion
  fluorescence response to cadmium(II): acts similarly to zinc(II) in resulting strong fluorescence from NDI
  fluorescence response to iron(II) and copper(II): quench fluorescence
  fluorescence response to manganese(II) and lead(II): fail to alter the fluorescence
[2]; Na+, K+, Ca2+, Mg2+ 1.0 mM
  fluorescence response to alkali and alkaline earth metal ions: do not elicit a fluorescence response
[3]; CH3CN, ZnCl2 0-18 μM, λex 400 nm
  enhancement in integrated intensity of emission at 630 nm at saturation: 12 fold
[3]; CH3CN, increasing ZnCl2
  D band absorption after bathochromic shift upon addition of ZnCl2: 370 nm
[3]; CH3CN, λex 600 nm
  fluorescence intensity on variation of zinc(II) concentration when NDI is directly excited: not affected much
[3]; indicator 3.0 μM, F/F0 at 630 nm vs [ZnCl2], fit to 1:1 binding isotherm, read-out: Dissociation constant Kd
  Kd: 9.1 µM
